Assays:
[1] = target: T1, human MDM4 protein (amino acids 2-185) (Homo sapiens, UniProt O15151); assay: p53-MDM4 TR-FRET assay (p53-MDM4 Assay 1); assay type: binding; conditions: 2.5 nM MDM4-biotinylated, 10 nM Cy5-p53 peptide; read-out: IC50 (μM) of p53-Hdm4 inhibition (TR-FRET) Assay 1
T1 construct: human MDM4 protein (amino acids 2-185); made in house
T1 sequence (O15151 2-185): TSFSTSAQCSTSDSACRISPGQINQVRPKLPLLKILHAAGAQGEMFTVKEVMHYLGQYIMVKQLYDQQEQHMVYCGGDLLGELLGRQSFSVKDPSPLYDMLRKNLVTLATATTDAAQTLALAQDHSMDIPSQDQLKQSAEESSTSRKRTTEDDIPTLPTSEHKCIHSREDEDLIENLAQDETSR
Protocol: (§1) Time Resolved Fluorescence Energy Transfer (TR-FRET) Assay
(§2) The inhibition of p53-MDM2 and p53-MDM4 interactions is measured by time resolved fluorescence energy transfer (TR-FRET). Fluorescence energy transfer (or Foerster resonance energy transfer) describes an energy transfer between donor and acceptor fluorescent molecules. For this assay, human MDM2 protein (amino acids 2-188) and human MDM4 protein (amino acids 2-185), tagged with a C-terminal biotin moiety, are used in combination with a Europium labeled streptavidin (Perkin Elmer, Inc., Waltham, Mass., USA) serving as the donor fluorophore. The p53 derived, Cy5 labeled peptide Cy5-TFSDLWKLL (p53 aa18-26) is the energy acceptor. Upon excitation of the donor molecule at 340 nm, binding interaction between MDM2 or MDM4 and the p53 peptide induces energy transfer and enhanced response at the acceptor emission wavelength at 665 nm. Disruption of the formation of the p53-MDM2 or p53-MDM4 complex due to an inhibitor molecule binding to the p53 binding site of MDM2 or MDM4 results in increased donor emission at 620 nm. The ratiometric FRET assay readout is calculated from the raw data of the two distinct fluorescence signals measured in time resolved mode (fluorescence 665 nm/fluorescence 620 nm×1000).
(§3) After addition of 1.25 nM MDM2-biotinylated or 2.5 nM MDM4-biotinylated (internal preparations), and 0.625 nM Europium labeled streptavidin (Perkin Elmer), the solution is pre-incubated for 15 minutes at room temperature, then 10 nM Cy5-p53 peptide (internal preparation) is added before an incubation at room temperature for 15 minutes prior to reading the plate. For measurement of samples, a Victor II microplate reader (Perkin Elmer) is used with the following settings: Excitation 340 nm, Emission Donor 620 nm and Emission Acceptor 665 nm. IC50 values are calculated by curve fitting using XLfit. If not specified, reagents are purchased from Sigma-Aldrich Chemie GmBH, Buchs, Switzerland.
(§4) This assay was used to evaluate compounds displaying inhibition of p53-MDM2 interaction and p53-MDM4 interaction at IC50s of 0.005 to 50 μM (p53-MDM2 Assay 1 and p53-MDM4 Assay 1, respectively). For selected compounds displaying IC50s between […] on MDM2, a slightly modified assay is used with the following adaptations: 0.1 nM MDM2, 0.1 nM Europium labeled streptavidin and Tecan genios Pro is used as a microplate reader for the fluorescence measurements (p53-MDM2 Assay 2).

[2] = target: T2, human MDM2 protein (amino acids 2-188) (Homo sapiens, UniProt Q00987); assay: p53-MDM2 TR-FRET assay (p53-MDM2 Assay 1); assay type: binding; conditions: 1.25 nM MDM2-biotinylated, 10 nM Cy5-p53 peptide; read-out: IC50 (μM) of p53-Hdm2 inhibition (TR-FRET) Assay 1
T2 construct: human MDM2 protein (amino acids 2-188); made in house
T2 sequence (Q00987 2-188): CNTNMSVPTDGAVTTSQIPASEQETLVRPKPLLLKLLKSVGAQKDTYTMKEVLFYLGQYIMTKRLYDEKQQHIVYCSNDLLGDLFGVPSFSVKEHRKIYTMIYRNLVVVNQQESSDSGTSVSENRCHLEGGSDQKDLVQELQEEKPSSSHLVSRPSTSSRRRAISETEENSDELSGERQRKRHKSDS
Protocol: as §1, §2, §3, §4

Structure (SMILES) | IC50 [1] | IC50 [2]
COc1cc2c(cc1OC(C)C)[C@H](c1ccc(Cl)cc1)N(c1ccc(C3(O)CN(C(=O)OC(C)(C)C)C3)cc1)C(=O)C2 [Example 55, 3-{4-[(S)-1-(4-Chloro-phenyl)-7-isopropoxy-6-methoxy-3-oxo-3,4-dihydro-1H-isoquinolin-2-yl]-phenyl}-3-hydroxy-azetidine-1-carboxylic acid tert-butyl ester] | 26.3 µM | 0.0926 µM
COc1cc2c(cc1OC(C)C)[C@H](c1ccc(Cl)cc1)N(c1ccc(C(C)(O)C3CCS(=O)(=O)CC3)cc1)C(=O)C2 (stereo partly drawn) [Example 166, (S)-1-(4-Chloro-phenyl)-2-{4-[1-(1,1-dioxo-hexahydro-1-thiopyran-4-yl)-1-hydroxy-ethyl]-phenyl}-7-isopropoxy-6-methoxy-1,4-dihydro-2H-isoquinolin-3-one] | 7.78 µM | 0.00735 µM
COc1cc2c(cc1OC(C)C)[C@H](c1ccc(Cl)cc1)N(c1ccc([C@@](C)(O)C3CC[S+]([O-])CC3)cc1)C(=O)C2 (stereo partly drawn) [Example 171, (S)-1-(4-Chloro-phenyl)-2-{4-[(S)-1-hydroxy-1-(1-oxo-hexahydro-1-thiopyran-4-yl)-ethyl]-phenyl}-7-isopropoxy-6-methoxy-1,4-dihydro-2H-isoquinolin-3-one] | 4.4 µM | 0.0031 µM
COc1cc2c(cc1OC(C)C)[C@H](c1ccc(Cl)cc1)N(c1ccc([C@](C)(O)C3CCS(=O)(=O)CC3)cc1)C(=O)C2 [Example 167, (S)-1-(4-Chloro-phenyl)-2-{4-[(R)-1-(1,1-dioxo-hexahydro-1-thiopyran-4-yl)-1-hydroxy-ethyl]-phenyl}-7-isopropoxy-6-methoxy-1,4-dihydro-2H-isoquinolin-3-one] | 51.1 µM | 0.125 µM
COc1cc2c(cc1OC(C)C)[C@H](c1ccc(Cl)cc1)N(c1ccc([C@@](C)(O)C3CCOCC3)cc1)C(=O)C2 (single isomer, unassigned) [Example 32] | 2.19 µM | 0.0023 µM
COc1cc2c(cc1OC(C)C)[C@H](c1ccc(Cl)cc1)N(c1ccc(C(C)(O)C3CN(C4CCOCC4)C3)cc1)C(=O)C2 (stereo partly drawn) [Example 98, (S)-1-(4-Chloro-phenyl)-2-(4-{1-hydroxy-1-[1-(tetrahydro-pyran-4-yl)-azetidin-3-yl]-ethyl}-phenyl)-7-isopropoxy-6-methoxy-1,4-dihydro-2H-isoquinolin-3-one] | 34.7 µM | 0.0342 µM
COc1cc2c(cc1OC(C)C)[C@H](c1ccc(Cl)cc1)N(c1ccc([C@](C)(O)C3CCOCC3)c(F)c1)C(=O)C2 (single isomer, unassigned) [Example 38] | 84 µM | 0.383 µM
COc1cc2c(cc1OC(C)C)[C@H](c1ccc(Cl)cc1)N(c1ccc(C(C)(O)C3CCN(C(=O)CC#N)CC3)cc1)C(=O)C2 (stereo partly drawn) [Example 88, 3-[4-(1-{4-[(S)-1-(4-Chloro-phenyl)-7-isopropoxy-6-methoxy-3-oxo-3,4-dihydro-1H-isoquinolin-2-yl]-phenyl}-1-hydroxy-ethyl)-piperidin-1-yl]-3-oxo-propionitrile] | 10.8 µM | 0.0114 µM
COc1cc2c(cc1OC(C)C)[C@H](c1ccc(Cl)cc1)N(c1ccc([C@](C)(O)C3CC[S+]([O-])CC3)cc1)C(=O)C2 (stereo partly drawn) [Example 170, (S)-1-(4-Chloro-phenyl)-2-{4-[(R)-1-hydroxy-1-(1-oxo-hexahydro-thiopyran-4-yl)-ethyl]-phenyl}-7-isopropoxy-6-methoxy-1,4-dihydro-2H-isoquinolin-3-one] | 62.5 µM | 0.168 µM
CCN1CC(C(C)(O)c2ccc(N3C(=O)Cc4cc(OC)c(OC(C)C)cc4[C@@H]3c3ccc(Cl)cc3)cc2)C1 (stereo partly drawn) [Example 71, (S)-1-(4-Chloro-phenyl)-2-{4-[1-(1-ethyl-azetidin-3-yl)-1-hydroxy-ethyl]-phenyl}-7-isopropoxy-6-methoxy-1,4-dihydro-2H-isoquinolin-3-one] | 30.1 µM | 0.026 µM
COc1cc2c(cc1OC(C)C)[C@H](c1ccc(Cl)cc1)N(c1ccc(C(C)(O)C3CC[S+]([O-])CC3)cc1)C(=O)C2 (stereo partly drawn) [Example 169, (S)-1-(4-Chloro-phenyl)-2-{4-[1-hydroxy-1-(1-oxo-hexahydro-1-thiopyran-4-yl)-ethyl]-phenyl}-7-isopropoxy-6-methoxy-1,4-dihydro-2H-isoquinolin-3-one] | 8.3 µM | 0.0096 µM
COc1cc2c(cc1OC(C)C)[C@H](c1ccc(Cl)cc1)N(c1ccc(C(C)(O)C3CCN(C)CC3)cc1)C(=O)C2 (mixture of isomers) [Example 34, (S)-1-(4-Chloro-phenyl)-2-{4-[1-hydroxy-1-(1-methyl-piperidin-4-yl)-ethyl]-phenyl}-7-isopropoxy-6-methoxy-1,4-dihydro-2H-isoquinolin-3-one] | 5.23 µM | 0.0051 µM
COc1cc2c(cc1OC(C)C)[C@H](c1ccc(Cl)cc1)N(c1ccc(C(C)(O)C3CCC(F)(F)CC3)cc1)C(=O)C2 (stereo partly drawn) [Example 45, (S)-1-(4-Chloro-phenyl)-2-{4-[1-(4,4-difluoro-cyclohexyl)-1-hydroxy-ethyl]-phenyl}-7-isopropoxy-6-methoxy-1,4-dihydro-2H-isoquinolin-3-one] | 17.4 µM | 0.0089 µM

The next lines start with the values.

IC50 [1] | IC50 [2] | Structure (SMILES)
39.7 µM | 0.143 µM | COc1cc2c(cc1OC(C)C)[C@H](c1ccc(Cl)cc1)N(c1ccc(C(C)(O)CNC(C)=O)cc1)C(=O)C2 (stereo partly drawn) [Example 29, N-(2-{4-[(S)-1-(4-Chloro-phenyl)-7-isopropoxy-6-methoxy-3-oxo-3,4-dihydro-1H-isoquinolin-2-yl]-phenyl}-2-hydroxy-propyl)-acetamide]
36.3 µM | 0.0458 µM | COc1cc2c(cc1OC(C)C)[C@H](c1ccc(Cl)cc1)N(c1ccc([C@](C)(O)c3ccc(NC(C)=O)cc3)cc1)C(=O)C2 [Example 27, N-[4-((R)-1-{4-[(S)-1-(4-Chloro-phenyl)-7-isopropoxy-6-methoxy-3-oxo-3,4-dihydro-1H-isoquinolin-2-yl]-phenyl}-1-hydroxy-ethyl)-phenyl]-acetamide]
2.31 µM | 0.0023 µM | COc1cc2c(cc1OC(C)C)[C@H](c1ccc(Cl)cc1)N(c1ccc(C(C)(O)C3CCN(C(C)=O)CC3)cc1)C(=O)C2 (stereo partly drawn) [Example 31, (S)-2-{4-[1-(1-Acetyl-piperidin-4-yl)-1-hydroxy-ethyl]-phenyl}-1-(4-chloro-phenyl)-7-isopropoxy-6-methoxy-1,4-dihydro-2H-isoquinolin-3-one]
87.2 µM | 0.0446 µM | COc1cc2c(cc1OC(C)C)[C@H](c1ccc(Cl)cc1)N(c1ccc(C(C)(O)c3ccc(F)c(F)c3)cc1)C(=O)C2 (stereo partly drawn) [Example 19, (S)-1-(4-Chloro-phenyl)-2-{4-[1-(3,4-difluoro-phenyl)-1-hydroxy-ethyl]-phenyl}-7-isopropoxy-6-methoxy-1,4-dihydro-2H-isoquinolin-3-one]
7.38 µM | 0.0078 µM | COc1cc2c(cc1OC(C)C)[C@H](c1ccc(Cl)cc1)N(c1ccc(C(C)(O)C3CN(C(=O)CO)C3)cc1)C(=O)C2 (stereo partly drawn) [Example 102, (S)-1-(4-Chloro-phenyl)-2-(4-{1-hydroxy-1-[1-(2-hydroxy-acetyl)-azetidin-3-yl]-ethyl}-phenyl)-7-isopropoxy-6-methoxy-1,4-dihydro-2H-isoquinolin-3-one]
1.62 µM | 0.0017 µM | COc1cc2c(cc1OC(C)C)[C@H](c1ccc(Cl)cc1)N(c1ccc([C@@](C)(O)C3CCN(C(C)=O)CC3)cc1)C(=O)C2 (single isomer, unassigned) [Example 53]

Reference: patent publication US8859535B2, “Hydroxy substituted isoquinolinone derivatives” (Novartis AG, priority 2011, dated 2014)
